Results taken from patent publication US20230085307A1, “PYRIDAZINONE COMPOUND AND HERBICIDE” (NISSAN CHEMICAL CORPORATION, priority 2019, published 2023).

Columns and labels:
southern crabgrass = test: Test Example 5: herbicidal effect by foliage application, plastic box (Table 20, symbol F); format: in vivo, southern crabgrass (Digitaria ciliaris); settings: foliage application, three weeks after application
Summary of the method: (§1)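 Plants sown in sterilized diluvial soil and grown 14 days in a greenhouse at 25° C to 30° C, then sprayed on the foliage with the compound's emulsion diluted in water to a predetermined herbicide amount. Injury to weeds and crops scored three weeks after application on a visual rating scale.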

Italian ryegrass = test: Test Example 5: herbicidal effect by foliage application, plastic box (Table 20, symbol K); format: in vivo, Italian ryegrass (Lolium multiflorum); settings: foliage application, three weeks after application
Summary of the method: as §1

Chinese sprangletop = test: Test Example 3: herbicidal effect by foliage application, Wagner pot (Table 18, symbol D); format: in vivo, chinese sprangletop (Leptochloa chinensis)
Method: [Test Example 3] Herbicidal Effect Test by Foliage Application After alluvial soil was placed into 1/10000 are of Wagner pot, water was poured and mixed to form a submerged condition having a water depth of 0.1 cm to 0.5 cm. Seeds of barnyard grass, Chinese sprangletop, rice flat sedge, and rice were sowed and the pot was placed in a greenhouse at 25° C. to 30° C. for growth of the plants. After 14-day growth of the plants, the emulsion agent of the compound of the present invention prepared according to Formulation Example 2 was diluted with water so as to achieve a predetermined herbicide amount, and the diluted emulsion agent was uniformly applied to a foliage part with a small-sized spray. Three weeks after the herbicide application, the effect of the herbicide on each plant was evaluated according to the criteria of Test Example 1.

barnyard grass [1] = test: Test Example 3: herbicidal effect by foliage application, Wagner pot (Table 18, symbol H); format: in vivo, barnyard grass (Echinochloa crus-galli)
Summary of the method: (§2)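 Plants were sown in alluvial soil held under 0.1–0.5 cm standing water and grown 14 days in a greenhouse at 25–30 °C. An emulsifiable formulation, water-diluted to the set dose, was then sprayed onto the foliage, and effects were scored three weeks later using previously defined criteria.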

barnyard grass [2] = test: Test Example 5: herbicidal effect by foliage application, plastic box (Table 20, symbol H); format: in vivo, barnyard grass (Echinochloa crus-galli); settings: foliage application, three weeks after application
Text: (§3) [Test Example 5] Herbicidal Effect Test by Foliage Application
(§4) Sterilized diluvial soil was placed in a plastic box having a length of 21 cm, a width of 13 cm, and a depth of 7 cm. The seeds of each of southern crabgrass, green foxtail, barnyard grass, wild oat, blackgrass, Italian ryegrass, windgrass, velvetleaf, redroot pigweed, lambsquarters, chickweed, false cleavers, persian speedwell, corn, soybean, rice, wheat, beet, and rapeseed were sowed in a spot-like manner and covered with the soil having a thickness of about 1.5 cm. Thereafter, the plants were grown in a greenhouse at 25° C. to 30° C. After 14-day growth of the plants, the emulsion agent of the compound of the present invention prepared according to Formulation Example 2 was diluted with water so as to achieve a predetermined herbicide amount, and the diluted emulsion agent was uniformly applied to a foliage part with a small-sized spray. Three weeks after the herbicide application, the effect of the herbicide on each plant was evaluated according to the criteria of Test Example 1.

wild oat = test: Test Example 5: herbicidal effect by foliage application, plastic box (Table 20, symbol I); format: in vivo, wild oat (Avena fatua); settings: foliage application, three weeks after application
Summary of the method: as §1

velvetleaf = test: Test Example 5: herbicidal effect by foliage application, plastic box (Table 20, symbol M); format: in vivo, velvetleaf (Abutilon theophrasti); settings: foliage application, three weeks after application
Text: as §3, §4

green foxtail = test: Test Example 5: herbicidal effect by foliage application, plastic box (Table 20, symbol G); format: in vivo, green foxtail (Setaria viridis); settings: foliage application, three weeks after application
Text: as §3, §4

lambsquarters = test: Test Example 5: herbicidal effect by foliage application, plastic box (Table 20, symbol O); format: in vivo, lambsquarters (Chenopodium album); settings: foliage application, three weeks after application
Summary of the method: as §1

rice flat sedge = test: Test Example 3: herbicidal effect by foliage application, Wagner pot (Table 18, symbol E); format: in vivo, rice flat sedge (Cyperus iria)
Summary of the method: as §2

windgrass = test: Test Example 5: herbicidal effect by foliage application, plastic box (Table 20, symbol L); format: in vivo, windgrass (Apera spica-venti); settings: foliage application, three weeks after application
Text: as §3, §4

blackgrass = test: Test Example 5: herbicidal effect by foliage application, plastic box (Table 20, symbol J); format: in vivo, blackgrass (Alopecurus myosuroides); settings: foliage application, three weeks after application
Text: as §3, §4

persian speedwell = test: Test Example 5: herbicidal effect by foliage application, plastic box (Table 20, symbol R); format: in vivo, Persian speedwell (Veronica persica); settings: foliage application, three weeks after application
Text: as §3, §4

COc1cc2sc(-c3ccc(F)cc3)c(-c3c(O)c(C)nn(C)c3=O)c2cc1-c1ccc(F)cc1 [5-078]
herbicidal effect on southern crabgrass (F) (southern crabgrass; 270 g/ha): 4 (Herbicidal rate of 70% or more and less than 90%)
herbicidal effect on Italian ryegrass (K) (Italian ryegrass; 270 g/ha): 0 (Herbicidal rate of 5% or less (almost no effect))
herbicidal effect on Chinese sprangletop (D) (Chinese sprangletop; 270 g/ha): 4 (Herbicidal rate of 70% or more and less than 90%)
herbicidal effect on barnyard grass (H) (barnyard grass [1]; 270 g/ha): 4 (Herbicidal rate of 70% or more and less than 90%)
herbicidal effect on barnyard grass (H) (barnyard grass [2]; 270 g/ha): 4 (Herbicidal rate of 70% or more and less than 90%)
herbicidal effect on wild oat (I) (wild oat; 270 g/ha): 0 (Herbicidal rate of 5% or less (almost no effect))
herbicidal effect on velvetleaf (M) (velvetleaf; 270 g/ha): 3 (Herbicidal rate of 40% or more and less than 70%)
herbicidal effect on green foxtail (G) (green foxtail; 270 g/ha): 5 (Herbicidal rate of 90% or more (almost completely withered))
herbicidal effect on lambsquarters (O) (lambsquarters; 270 g/ha): 1 (Herbicidal rate of 5% or more and less than 20%)
herbicidal effect on rice flat sedge (E) (rice flat sedge; 270 g/ha): 3 (Herbicidal rate of 40% or more and less than 70%)
herbicidal effect on windgrass (L) (windgrass; 270 g/ha): 0 (Herbicidal rate of 5% or less (almost no effect))
herbicidal effect on blackgrass (J) (blackgrass; 270 g/ha): 0 (Herbicidal rate of 5% or less (almost no effect))
herbicidal effect on persian speedwell (R) (persian speedwell; 270 g/ha): 0 (Herbicidal rate of 5% or less (almost no effect))

Cc1nn(C)c(=O)c(-c2c(-c3ccc(OC(F)F)cc3)sc3cc(Cl)c(Cl)cc23)c1O [5-086]
herbicidal effect on southern crabgrass (F) (southern crabgrass; 320 g/ha): 0 (Herbicidal rate of 5% or less (almost no effect))
herbicidal effect on Italian ryegrass (K) (Italian ryegrass; 320 g/ha): 0 (Herbicidal rate of 5% or less (almost no effect))
herbicidal effect on Chinese sprangletop (D) (Chinese sprangletop; 320 g/ha): 0 (Herbicidal rate of 5% or less (almost no effect))
herbicidal effect on barnyard grass (H) (barnyard grass [1]; 320 g/ha): 3 (Herbicidal rate of 40% or more and less than 70%)
herbicidal effect on barnyard grass (H) (barnyard grass [2]; 320 g/ha): 0 (Herbicidal rate of 5% or less (almost no effect))
herbicidal effect on wild oat (I) (wild oat; 320 g/ha): 0 (Herbicidal rate of 5% or less (almost no effect))
herbicidal effect on velvetleaf (M) (velvetleaf; 320 g/ha): 3 (Herbicidal rate of 40% or more and less than 70%)
herbicidal effect on green foxtail (G) (green foxtail; 320 g/ha): 0 (Herbicidal rate of 5% or less (almost no effect))
herbicidal effect on lambsquarters (O) (lambsquarters; 320 g/ha): 5 (Herbicidal rate of 90% or more (almost completely withered))
herbicidal effect on rice flat sedge (E) (rice flat sedge; 320 g/ha): 0 (Herbicidal rate of 5% or less (almost no effect))
herbicidal effect on windgrass (L) (windgrass; 320 g/ha): 5 (Herbicidal rate of 90% or more (almost completely withered))
herbicidal effect on blackgrass (J) (blackgrass; 320 g/ha): 5 (Herbicidal rate of 90% or more (almost completely withered))
herbicidal effect on persian speedwell (R) (persian speedwell; 320 g/ha): 5 (Herbicidal rate of 90% or more (almost completely withered))

COc1ccccc1-c1sc2c(C)cc(C)cc2c1-c1c(O)c(C)nn(C)c1=O [6-002]
herbicidal effect on southern crabgrass (F) (southern crabgrass; 320 g/ha): 0 (Herbicidal rate of 5% or less (almost no effect))
herbicidal effect on Italian ryegrass (K) (Italian ryegrass; 320 g/ha): 4 (Herbicidal rate of 70% or more and less than 90%)
herbicidal effect on Chinese sprangletop (D) (Chinese sprangletop; 320 g/ha): 5 (Herbicidal rate of 90% or more (almost completely withered))
herbicidal effect on barnyard grass (H) (barnyard grass [1]; 320 g/ha): 4 (Herbicidal rate of 70% or more and less than 90%)
herbicidal effect on barnyard grass (H) (barnyard grass [2]; 320 g/ha): 0 (Herbicidal rate of 5% or less (almost no effect))
herbicidal effect on wild oat (I) (wild oat; 320 g/ha): 0 (Herbicidal rate of 5% or less (almost no effect))
herbicidal effect on velvetleaf (M) (velvetleaf; 320 g/ha): 1 (Herbicidal rate of 5% or more and less than 20%)
herbicidal effect on green foxtail (G) (green foxtail; 320 g/ha): 3 (Herbicidal rate of 40% or more and less than 70%)
herbicidal effect on lambsquarters (O) (lambsquarters; 320 g/ha): 2 (Herbicidal rate of 20% or more and less than 40%)
herbicidal effect on rice flat sedge (E) (rice flat sedge; 320 g/ha): 3 (Herbicidal rate of 40% or more and less than 70%)
herbicidal effect on windgrass (L) (windgrass; 320 g/ha): 1 (Herbicidal rate of 5% or more and less than 20%)
herbicidal effect on blackgrass (J) (blackgrass; 320 g/ha): 4 (Herbicidal rate of 70% or more and less than 90%)
herbicidal effect on persian speedwell (R) (persian speedwell; 320 g/ha): 4 (Herbicidal rate of 70% or more and less than 90%)
